Data as given in US8592174B2, “Peptidase substrates” (bioMérieux, S.A., priority 2009, dated 2013).
One block for each molecule: values may come before it.

Experiments:
Format in all cases: cell-based
[1] = system: Acinetobacter baumannii 0604029; assay: Peptidase detection on Columbia medium (Example 4); details: 75 mg/l, 48 h 37° C.; for Growth: control C: ++
From the text: (§1) After homogenization, the media were distributed into 120-mm-squared dishes. A medium serving as a growth control (Columbia) and denoted C was also poured.

[2] = system: Salmonella ser typhimurium 0801029; assay: Peptidase detection on Columbia medium (Example 4); details: 75 mg/l, 48 h 37° C.; for Growth: control C: ++
From the text: as §1

[3] = system: Citrobacter freundii 0006197; assay: Peptidase detection on Columbia medium (Example 4); details: 75 mg/l, 48 h 37° C.; for Growth: control C: ++
From the text: as §1

[4] = system: Providencia rettgeri 0706064; assay: Peptidase detection on Columbia medium (Example 4); details: 75 mg/l, 48 h 37° C.; for Growth: control C: ++
From the text: as §1

[5] = system: Morganella morganii 9207053; assay: Peptidase detection on Columbia medium (Example 4); details: 75 mg/l, 48 h 37° C.; for Growth: control C: ++
From the text: as §1

[6] = system: Escherichia coli 0002005; assay: Peptidase detection on Columbia medium (Example 4); details: 75 mg/l, 48 h 37° C.; for Growth: control C: ++
From the text: as §1

[7] = system: Enterococcus faecium 0610021; assay: Peptidase detection on Columbia medium (Example 4); details: 75 mg/l, 48 h 37° C.; for Growth: control C: ++; as to all read-outs here: key: +++: good growth/high coloration strength; ++: medium growth/medium coloration strength; +: weak growth/weak coloration strength; −: no growth/no coloration
From the text: as §1

[8] = system: Streptococcus pyogenes 9806380; assay: Peptidase detection on Columbia medium (Example 4); details: 75 mg/l, 48 h 37° C.; for Growth: control C: ++
From the text: as §1

[9] = system: Candida glabrata 0408083; assay: Peptidase detection on Columbia medium (Example 4); details: 75 mg/l, 48 h 37° C.; for Growth: control C: +; as to all read-outs here: key: +++: good growth/high coloration strength; ++: medium growth/medium coloration strength; +: weak growth/weak coloration strength; −: no growth/no coloration
From the text: as §1

[10] = system: Candida albicans 0801025; assay: Peptidase detection on Columbia medium (Example 4); details: 75 mg/l, 48 h 37° C.; for Growth: control C: ++; as to all read-outs here: key: +++: good growth/high coloration strength; ++: medium growth/medium coloration strength; +: weak growth/weak coloration strength; −: no growth/no coloration
From the text: as §1

[11] = system: Pseudomonas aeruginosa 0001001; assay: Peptidase detection on Columbia medium (Example 4); details: 75 mg/l, 48 h 37° C.; for Growth: control C: ++
From the text: as §1

[12] = system: Listeria monocytogenes 8812049; assay: Peptidase detection on Columbia medium (Example 4); details: 75 mg/l, 48 h 37° C.; for Growth: control C: ++
From the text: as §1

[13] = system: MRSA 0303033; assay: Peptidase detection on Columbia medium (Example 4); details: 75 mg/l, 48 h 37° C.; for Growth: control C: ++
From the text: as §1

[14] = system: Yersinia enterocolitica 7605019; assay: Peptidase detection on Columbia medium (Example 4); details: 75 mg/l, 48 h 37° C.; for Growth: control C: ++
From the text: as §1

[15] = system: Klebsiella pneumoniae 0008009; assay: Peptidase detection on Columbia medium (Example 4); details: 75 mg/l, 48 h 37° C.; for Growth: control C: ++
From the text: as §1

[16] = system: Enterobacter cloacae 0604040; assay: Peptidase detection on Columbia medium (Example 4); details: 75 mg/l, 48 h 37° C.; for Growth: control C: ++
From the text: as §1

[17] = system: Enterococcus faecalis 0008192; assay: Peptidase detection on Columbia medium (Example 4); details: 75 mg/l, 48 h 37° C.; for Growth: control C: ++
From the text: as §1

[18] = system: Serratia marcescens 7303004; assay: Peptidase detection on Columbia medium (Example 4); details: 75 mg/l, 48 h 37° C.; for Growth: control C: ++
From the text: as §1

[19] = system: Burkholderia cepacia 7507032; assay: Peptidase detection on Columbia medium (Example 4); details: 75 mg/l, 48 h 37° C.; for Growth: control C: ++
From the text: as §1

[20] = system: Staphylococcus epidermidis 0203050; assay: Peptidase detection on Columbia medium (Example 4); details: 75 mg/l, 48 h 37° C.; for Growth: control C: ++
From the text: as §1

[21] = system: Bacillus subtilis 0204038; assay: Peptidase detection on Columbia medium (Example 4); details: 75 mg/l, 48 h 37° C.; for Growth: control C: ++; as to all read-outs here: key: +++: good growth/high coloration strength; ++: medium growth/medium coloration strength; +: weak growth/weak coloration strength; −: no growth/no coloration
From the text: as §1

[22] = system: Staphylococcus aureus 7811049; assay: Peptidase detection on Columbia medium (Example 4); details: 75 mg/l, 48 h 37° C.; for Growth: control C: ++
From the text: as §1

[23] = system: Staphylococcus epidermidis NCTC 11 047; assay: Peptidase detection on Columbia medium (Example 2); parameters: key to Growth: NG: No growth; 0.5: weak growth; 1: moderate growth; 2: good growth; key to Fluo. / Color / Color post-acid.: —: no color; details: 40 mg in 400 ml Columbia; 24 h 37° C.
Experimental: (§2) The 6 media were distributed into Petri dishes 90 mm in diameter, in a proportion of 20 ml per dish.
(§3) Seventeen strains of microorganisms stemming from collections and belonging to various species of bacteria and yeasts are inoculated in spots of approximately 10 000 colony-forming units.
(§4) The media are incubated for 24 hours at 37° C., and then the colonies formed are examined visually, with or without the addition of acid and under a UV lamp at 365 nm.

[24] = system: Salmonella typhimurium NCTC 74; assay: Peptidase detection on Columbia medium (Example 2); parameters: key to Growth: NG: No growth; 0.5: weak growth; 1: moderate growth; 2: good growth; details: 40 mg in 400 ml Columbia; 24 h 37° C.
Experimental: as §2, §3, §4

[25] = system: Candida albicans ATCC 90 028; assay: Peptidase detection on Columbia medium (Example 2); parameters: key to Growth: NG: No growth; 0.5: weak growth; 1: moderate growth; 2: good growth; key to Fluo. / Color / Color post-acid.: —: no color; details: 40 mg in 400 ml Columbia; 24 h 37° C.
Experimental: as §2, §3, §4

[26] = system: Staphylococcus aureus NCTC 11 939; assay: Peptidase detection on Columbia medium (Example 2); parameters: key to Growth: NG: No growth; 0.5: weak growth; 1: moderate growth; 2: good growth; key to Fluo. / Color / Color post-acid.: —: no color; details: 40 mg in 400 ml Columbia; 24 h 37° C.
Experimental: as §2, §3, §4

[27] = system: Escherichia coli NCTC 10 418; assay: Peptidase detection on Columbia medium (Example 2); parameters: key to Growth: NG: No growth; 0.5: weak growth; 1: moderate growth; 2: good growth; details: 40 mg in 400 ml Columbia; 24 h 37° C.
Experimental: as §2, §3, §4

[28] = system: Bacillus subtilis NCTC 9 372; assay: Peptidase detection on Columbia medium (Example 2); parameters: key to Growth: NG: No growth; 0.5: weak growth; 1: moderate growth; 2: good growth; key to Fluo. / Color / Color post-acid.: —: no color; details: 40 mg in 400 ml Columbia; 24 h 37° C.
Experimental: as §2, §3, §4

[29] = system: Pseudomonas aeruginosa NCTC 10 662; assay: Peptidase detection on Columbia medium (Example 2); parameters: key to Growth: NG: No growth; 0.5: weak growth; 1: moderate growth; 2: good growth; details: 40 mg in 400 ml Columbia; 24 h 37° C.
Experimental: as §2, §3, §4

Color [1]: orange | Coloration strength [1]: ++ | Growth [1]: ++ | Color [2]: orange | Coloration strength [2]: + | Growth [2]: ++ | Color [3]: orange | Coloration strength [3]: + | Growth [3]: ++ | Color [5]: orange | Coloration strength [5]: ++ | Growth [5]: ++ | Color [7]: − | Coloration strength [7]: − | Growth [7]: ++ | Color [8]: orange | Coloration strength [8]: + | Growth [8]: ++ | Color [11]: orange | Coloration strength [11]: ++ | Growth [11]: ++ | Color [12]: orange | Coloration strength [12]: ++ | Growth [12]: ++ | Color [13]: orange | Coloration strength [13]: + | Growth [13]: ++ | Color [15]: orange | Coloration strength [15]: ++ | Growth [15]: ++ | Color [16]: orange | Coloration strength [16]: ++ | Growth [16]: ++ | Color [17]: orange | Coloration strength [17]: + | Growth [17]: ++ | Color [18]: orange | Coloration strength [18]: ++ | Growth [18]: ++ | Color [19]: orange | Coloration strength [19]: + | Growth [19]: ++ | Color [21]: − | Coloration strength [21]: − | Growth [21]: ++
SMILES: C[C@H](N)C(=O)Nc1ccc(C=Cc2cc[n+](C)c3ccccc23)cc1.Cl.[Cl-] [L-alanyl-4-(4′-amidostyryl)-N-methylquinolinium (dichloride)]
Color [4]: orange | Coloration strength [4]: + | Growth [4]: ++ | Color [6]: orange | Coloration strength [6]: ++ | Growth [6]: ++ | Coloration strength [9]: − | Growth [9]: + | Coloration strength [10]: − | Growth [10]: ++ | Color [14]: orange | Coloration strength [14]: ++ | Growth [14]: ++ | Color [20]: orange | Coloration strength [20]: ++ | Growth [20]: ++ | Coloration strength [22]: + | Growth [22]: ++

Color [24]: Orange | Growth [24]: 2 | Color [1]: orange | Coloration strength [1]: ++ | Growth [1]: ++ | Color [2]: orange | Coloration strength [2]: + | Growth [2]: ++ | Color [3]: orange | Coloration strength [3]: + | Growth [3]: ++ | Color [5]: orange | Coloration strength [5]: ++ | Growth [5]: ++ | Coloration strength [7]: − | Growth [7]: ++ | Color [8]: orange | Coloration strength [8]: + | Growth [8]: ++ | Color [11]: orange | Coloration strength [11]: ++ | Growth [11]: ++ | Color [12]: orange | Coloration strength [12]: ++ | Growth [12]: ++ | Color [13]: orange | Coloration strength [13]: + | Growth [13]: ++ | Color [15]: orange | Coloration strength [15]: ++ | Growth [15]: ++ | Color [16]: orange | Coloration strength [16]: ++ | Growth [16]: ++ | Color [17]: orange | Coloration strength [17]: + | Growth [17]: ++ | Color [18]: orange | Coloration strength [18]: ++ | Growth [18]: ++ | Color [19]: orange | Coloration strength [19]: + | Growth [19]: ++ | Coloration strength [21]: − | Growth [21]: ++ | Color [28]: — | Growth [28]: 2 | Color [29]: Orange | Growth [29]: 2
SMILES: C[C@H](N)C(=O)N[C@@H](C)C(=O)N[C@@H](C)C(=O)Nc1ccc(C=Cc2cc[n+](C)c3ccccc23)cc1.Cl.[Cl-] [Tri-Ala-ASQM^+, L-alanyl-L-alanyl-L-alanyl-4-(4′-amidostyryl)-N-methylquinolinium (dichloride)]
Color [23]: — | Growth [23]: 2 | Color [25]: — | Growth [25]: 2 | Color [26]: — | Growth [26]: 2 | Color [27]: Orange | Growth [27]: 2 | Color [4]: orange | Coloration strength [4]: + | Growth [4]: ++ | Color [6]: orange | Coloration strength [6]: ++ | Growth [6]: ++ | Growth [9]: − | Growth [10]: + | Color [14]: orange | Coloration strength [14]: ++ | Growth [14]: ++ | Color [20]: orange | Coloration strength [20]: ++ | Growth [20]: ++ | Coloration strength [22]: + | Growth [22]: ++
